This passage reports IC50 results from patent US11878975B2, “Substituted indole compounds useful as TLR inhibitors” (BRISTOL-MYERS SQUIBB COMPANY, priority 2017, dated 2024).

Holding throughout (type): cell-based
The target of one experiment is T1, human TLR7 (Homo sapiens, UniProt Q9NYK1).
T1 construct: host or cells: HEK-Blue cells
T1 sequence (Q9NYK1 27-1049): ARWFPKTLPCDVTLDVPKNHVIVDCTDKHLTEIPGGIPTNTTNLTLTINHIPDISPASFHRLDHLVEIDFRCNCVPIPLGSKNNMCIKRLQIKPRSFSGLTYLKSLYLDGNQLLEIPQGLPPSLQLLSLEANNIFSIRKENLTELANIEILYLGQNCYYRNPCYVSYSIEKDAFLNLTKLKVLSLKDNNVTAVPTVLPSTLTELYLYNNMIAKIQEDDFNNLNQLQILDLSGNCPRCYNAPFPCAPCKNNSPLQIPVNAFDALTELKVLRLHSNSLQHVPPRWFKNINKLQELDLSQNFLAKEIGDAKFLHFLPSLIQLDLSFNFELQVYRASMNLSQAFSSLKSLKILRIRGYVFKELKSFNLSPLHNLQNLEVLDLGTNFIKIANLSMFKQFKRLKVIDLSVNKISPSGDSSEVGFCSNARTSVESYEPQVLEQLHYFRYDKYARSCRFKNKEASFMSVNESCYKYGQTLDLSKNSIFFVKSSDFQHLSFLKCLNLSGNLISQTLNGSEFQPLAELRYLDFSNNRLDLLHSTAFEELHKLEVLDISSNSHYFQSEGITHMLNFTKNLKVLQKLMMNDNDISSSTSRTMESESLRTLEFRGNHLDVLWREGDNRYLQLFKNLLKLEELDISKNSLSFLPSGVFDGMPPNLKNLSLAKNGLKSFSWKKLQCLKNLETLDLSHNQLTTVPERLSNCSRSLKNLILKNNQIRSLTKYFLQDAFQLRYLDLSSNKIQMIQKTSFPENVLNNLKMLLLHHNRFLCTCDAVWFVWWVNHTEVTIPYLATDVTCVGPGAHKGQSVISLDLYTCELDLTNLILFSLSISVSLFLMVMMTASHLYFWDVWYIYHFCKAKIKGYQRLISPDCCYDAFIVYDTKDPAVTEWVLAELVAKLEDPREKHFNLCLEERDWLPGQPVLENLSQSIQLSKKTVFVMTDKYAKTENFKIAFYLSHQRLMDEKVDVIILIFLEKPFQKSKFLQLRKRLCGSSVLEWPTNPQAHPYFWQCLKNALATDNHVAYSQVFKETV
Briefly: TLR7 inhibition reporter assay (HEK-Blue cells, SEAP reporter, gardiquimod stimulation). As to conditions: HEK-Blue cells overexpressing human TLR7, SEAP reporter, gardiquimod 7.5 μM. The method, boiled down:
(§1)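 Percent inhibition is derived from SEAP signal, scaled between agonist-plus-DMSO wells and wells given a known inhibitor. Test compounds (0.05 nM–50 μM) are pre-incubated 30 min at room temperature before agonist addition (TLR7: 7.5 μM gardiquimod; TLR8: 15.9 μM R848; TLR9: 5 nM ODN2006) and 22 h culture at 37 °C.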

Another experiment has as its target T2, human TLR8 (Homo sapiens, UniProt Q9NR97).
T2 construct: host or cells: HEK-Blue cells
T2 sequence (Q9NR97 27-1041): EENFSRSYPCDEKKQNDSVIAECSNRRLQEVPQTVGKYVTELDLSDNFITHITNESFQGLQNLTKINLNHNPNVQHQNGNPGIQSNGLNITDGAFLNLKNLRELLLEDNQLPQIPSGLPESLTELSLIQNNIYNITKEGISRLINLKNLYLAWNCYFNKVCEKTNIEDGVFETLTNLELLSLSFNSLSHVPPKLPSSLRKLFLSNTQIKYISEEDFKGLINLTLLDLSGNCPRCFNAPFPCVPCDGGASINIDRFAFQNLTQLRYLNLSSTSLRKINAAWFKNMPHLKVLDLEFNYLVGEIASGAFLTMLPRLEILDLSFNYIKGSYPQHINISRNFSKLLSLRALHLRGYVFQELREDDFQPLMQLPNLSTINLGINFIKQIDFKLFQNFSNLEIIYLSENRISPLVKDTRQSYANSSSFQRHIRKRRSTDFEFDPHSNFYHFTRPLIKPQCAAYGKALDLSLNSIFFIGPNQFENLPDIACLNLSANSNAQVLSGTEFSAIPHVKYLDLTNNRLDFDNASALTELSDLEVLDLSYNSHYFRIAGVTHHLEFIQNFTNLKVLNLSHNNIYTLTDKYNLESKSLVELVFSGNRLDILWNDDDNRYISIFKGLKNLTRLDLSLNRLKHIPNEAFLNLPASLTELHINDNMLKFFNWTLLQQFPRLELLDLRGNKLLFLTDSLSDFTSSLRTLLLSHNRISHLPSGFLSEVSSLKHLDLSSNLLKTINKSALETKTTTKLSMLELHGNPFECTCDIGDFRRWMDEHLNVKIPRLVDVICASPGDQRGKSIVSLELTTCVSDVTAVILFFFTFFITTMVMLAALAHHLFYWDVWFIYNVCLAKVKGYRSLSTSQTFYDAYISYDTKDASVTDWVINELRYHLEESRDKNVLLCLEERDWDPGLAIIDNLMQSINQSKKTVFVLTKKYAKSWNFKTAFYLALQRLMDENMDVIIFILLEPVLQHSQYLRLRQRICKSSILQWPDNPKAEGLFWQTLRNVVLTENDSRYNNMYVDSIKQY
Put plainly: TLR8 inhibition reporter assay (HEK-Blue cells, SEAP reporter, R848 stimulation). The following applies: HEK-Blue cells overexpressing human TLR8, SEAP reporter, R848 15.9 μM. The method, boiled down: as §1
(In a reporter assay the amount or activity of a reporter protein is the signal.)

For a further experiment, the target named is T3, human TLR9 (Homo sapiens, UniProt Q9NR96).
T3 construct: host or cells: HEK-Blue cells
T3 sequence (Q9NR96 26-1032): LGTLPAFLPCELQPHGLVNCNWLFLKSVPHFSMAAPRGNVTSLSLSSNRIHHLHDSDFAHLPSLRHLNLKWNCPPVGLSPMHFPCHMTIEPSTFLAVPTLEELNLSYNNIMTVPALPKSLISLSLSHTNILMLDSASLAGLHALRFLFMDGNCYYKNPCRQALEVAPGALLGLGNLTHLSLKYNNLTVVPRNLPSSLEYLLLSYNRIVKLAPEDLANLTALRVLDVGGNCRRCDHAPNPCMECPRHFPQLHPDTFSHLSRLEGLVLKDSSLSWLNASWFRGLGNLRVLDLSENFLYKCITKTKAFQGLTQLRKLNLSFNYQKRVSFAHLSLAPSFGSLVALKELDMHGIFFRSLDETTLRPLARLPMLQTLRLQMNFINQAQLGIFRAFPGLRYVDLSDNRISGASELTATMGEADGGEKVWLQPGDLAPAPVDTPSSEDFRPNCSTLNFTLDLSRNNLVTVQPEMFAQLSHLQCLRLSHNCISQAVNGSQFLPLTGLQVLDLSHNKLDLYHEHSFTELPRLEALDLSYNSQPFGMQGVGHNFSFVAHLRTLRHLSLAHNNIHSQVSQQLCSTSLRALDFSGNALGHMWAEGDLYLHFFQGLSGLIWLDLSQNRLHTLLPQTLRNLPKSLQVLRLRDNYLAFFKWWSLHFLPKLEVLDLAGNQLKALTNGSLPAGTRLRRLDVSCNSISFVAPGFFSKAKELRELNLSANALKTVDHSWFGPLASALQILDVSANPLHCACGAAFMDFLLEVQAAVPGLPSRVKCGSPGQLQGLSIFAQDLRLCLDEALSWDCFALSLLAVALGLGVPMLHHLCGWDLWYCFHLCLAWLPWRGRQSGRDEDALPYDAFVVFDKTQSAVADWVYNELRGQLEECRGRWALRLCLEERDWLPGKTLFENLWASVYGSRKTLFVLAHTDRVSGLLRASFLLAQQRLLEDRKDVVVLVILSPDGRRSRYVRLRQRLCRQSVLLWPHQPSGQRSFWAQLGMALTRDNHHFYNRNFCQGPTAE
Put plainly: TLR9 inhibition reporter assay (HEK-Blue cells, SEAP reporter, ODN2006 stimulation). As to conditions: HEK-Blue cells overexpressing human TLR9, SEAP reporter, ODN2006 5 nM. The method in brief:
as §1

For orientation: IC50 means the concentration that inhibits the measured activity by half. Low values mean greater potency in that assay, high ones weaker potency in that assay. As to `COc1cc(-c2[nH]c3ccc(C4CC(NC(=O)CN(C)C)C4)cc3c2C(C)C)cn2ncnc12` (stereo not drawn) [Example 569], the IC50 amounted to 0.32 nM against human TLR7, 0.62 nM against human TLR8 and 4550 nM on human TLR9.

Turning to `COc1cc(-c2[nH]c3ccc(C4CCC(NC5(C)CC5)CC4)cc3c2C(C)C)cn2ncnc12` (stereo not drawn) [Example 43], the IC50 was found to be 1 nM on human TLR7, 13 nM at human TLR8 and 4370 nM against human TLR9.

As for `COc1cc(-c2[nH]c3ccc(C4CCCN(CC(C)(C)O)C4)cc3c2C(C)C)cn2ncnc12` (stereo not drawn) [Example 249], the IC50 was 2 nM against human TLR7, 1.2 nM on human TLR8 and 2330 nM against human TLR9.

In the case of `CCc1c(-c2ccnc(C)c2)[nH]c2ccc(CNC(=O)CCN(C)C)cc12` [Example 395, 3-(dimethylamino)-N-{[3-ethyl-2-(2-methylpyridin-4-yl)-1H-indol-5-yl]methyl}propanamide], the IC50 against human TLR7 was 966 nM; at human TLR8, 182 nM; against human TLR9, 823 nM.

As for `Cc1cc(-c2[nH]c3ccc(C4CCCN(Cc5c[nH]c(C)n5)C4)cc3c2C(C)C)cc(C)n1` (stereo not drawn) [Example 246], the IC50 stood at 10 nM at human TLR7, 16 nM at human TLR8 and 56 nM against human TLR9.

Regarding `COc1ccc(-c2[nH]c3ccc(C4CCC5CC(C4)N5)cc3c2C(C)C)cc1OC` (stereo not drawn) [Example 279, 3-(2-(3.4-dimethoxyphenyl)-3-isopropyl-1H-indol-5-yl)-7-azabicyclo[4.1.1]octane], the IC50 on human TLR7 turned out to be 37 nM; against human TLR8, 73 nM; against human TLR9 it was 3130 nM.

Consider `Cc1c(-c2[nH]c3ccc(C4CC5CN(CC(N)=O)CC5C4)cc3c2C(C)C)cn2ncnc2c1C` (stereo not drawn) [Example 511], for which the 50% inhibitory concentration (IC50) is 0.94 nM at human TLR7, 6.1 nM at human TLR8 and 12300 nM against human TLR9.

For the molecule `CNC(=O)CNC1CCC(c2ccc3[nH]c(-c4cc(OC)c5ncnn5c4)c(C(C)C)c3c2)CC1` (stereo not drawn) [Example 167], the IC50 on human TLR7 is 0.22 nM; at human TLR8 it was 0.62 nM; against human TLR9, 1300 nM.

Turning to `COc1cc(-c2[nH]c3ccc(C4CCC(N(C)CC(F)F)CC4)cc3c2C(C)C)cn2ncnc12` (stereo not drawn) [Example 81], the IC50 worked out at 17 nM at human TLR7, 104 nM on human TLR8 and 25500 nM against human TLR9.

Regarding `Cc1c(-c2[nH]c3ccc(C4CC5CN(C6CCOC6)CC5C4)cc3c2C(C)C)cn2cnnc2c1C` (stereo not drawn) [Example 562], the IC50 on human TLR7 was 4 nM; against human TLR8, 28 nM; against human TLR9, 3710 nM.

Turning to `COc1cc(-c2[nH]c3ccc(CCN4CCCC4)cc3c2C(C)C)cn2ncnc12` [Example 414], the IC50 is 3 nM against human TLR7, 4 nM against human TLR8 and 4510 nM against human TLR9.

As for `Cc1c(-c2[nH]c3ccc(C4CCCN(CC(=O)N(C)C)C4)cc3c2C(C)C)cn2ncnc2c1C` (stereo not drawn) [Example 230], the IC50 on human TLR7 was found to be 13 nM; on human TLR8 it was 13 nM; at human TLR9 it was 5790 nM.

As for `Cc1c(-c2[nH]c3ccc(C4CC5CN(CC6(C)COC6)CC5C4)cc3c2C(C)C)cn2cnnc2c1C` (stereo not drawn) [Example 561], the values for the IC50 on human TLR7, against human TLR8 and at human TLR9 were 5 nM, 25 nM and 4680 nM, respectively.

Consider `CNC1CCC(c2ccc3[nH]c(-c4cn5cnnc5c(C)c4C)c(C(C)C)c3c2)CC1` (stereo not drawn) [Example 530], for which the values for the IC50 against human TLR7, against human TLR8 and on human TLR9 were 2 nM, 12 nM and 696 nM, respectively.

For the molecule `Cc1cc(-c2[nH]c3ccc(C4CN(C5CCS(=O)(=O)CC5)C4)cc3c2C(C)C)cc(C)n1` [Example 270], the IC50 on human TLR7 amounted to 14 nM; on human TLR8 it was 20 nM; against human TLR9 it was 888 nM.

Consider `CNCC(=O)NC1CCC(c2ccc3[nH]c(-c4cn5ncnc5c(C)c4C)c(C(C)C)c3c2)CC1` (stereo not drawn) [Example 128, N-(4-(2-(7,8-dimethyl-[1,2,4]triazolo[1,5-a]pyridin-6-yl)-3-isopropyl-1H-indol-5-yl)cyclohexyl)-2-(methylamino)acetamide], for which the IC50 at human TLR7 stood at 0.37 nM; against human TLR8, 1.4 nM; against human TLR9, 2250 nM.

Consider `COc1cc(-c2[nH]c3ccc(C4CCC(NCC(F)F)CC4)cc3c2C(C)C)cn2ncnc12` (single isomer, unassigned) [Example 68], for which the IC50 is 0.85 nM against human TLR7, 6.8 nM against human TLR8 and 11600 nM on human TLR9.

For the molecule `Cc1c(-c2[nH]c3ccc(C4CCC(NC5COC5)CC4)cc3c2C(C)C)cn2ncnc2c1C` (single isomer, unassigned) [Example 86], the 50% inhibitory concentration (IC50) at human TLR7 is 2 nM; against human TLR8, 2.6 nM; against human TLR9, 5220 nM.

As to `Cc1c(-c2[nH]c3ccc(C4CCC(NC(=O)CN(C)C)CC4)cc3c2C(C)C)cn(C)c(=O)c1C` (stereo not drawn) [Example 471], the values for the IC50 against human TLR7, against human TLR8 and against human TLR9 were 43 nM, 14 nM and 38300 nM, respectively.
